From US20240389587A1, “COMPOSITIONS AND METHODS FOR CONTROLLING PHYTOPATHOGENIC INFECTIONS” (INSTITUT NATIONAL DE RECHERCHE POUR L'AGRICULTURE, …, priority 2021, published 2024) come the findings set out here.

In the first assay the target is T1, IRE1 (Saccharomyces cerevisiae, UniProt P32361).
T1 construct: endogenous in cells
T1 sequence (P32361 19-1115): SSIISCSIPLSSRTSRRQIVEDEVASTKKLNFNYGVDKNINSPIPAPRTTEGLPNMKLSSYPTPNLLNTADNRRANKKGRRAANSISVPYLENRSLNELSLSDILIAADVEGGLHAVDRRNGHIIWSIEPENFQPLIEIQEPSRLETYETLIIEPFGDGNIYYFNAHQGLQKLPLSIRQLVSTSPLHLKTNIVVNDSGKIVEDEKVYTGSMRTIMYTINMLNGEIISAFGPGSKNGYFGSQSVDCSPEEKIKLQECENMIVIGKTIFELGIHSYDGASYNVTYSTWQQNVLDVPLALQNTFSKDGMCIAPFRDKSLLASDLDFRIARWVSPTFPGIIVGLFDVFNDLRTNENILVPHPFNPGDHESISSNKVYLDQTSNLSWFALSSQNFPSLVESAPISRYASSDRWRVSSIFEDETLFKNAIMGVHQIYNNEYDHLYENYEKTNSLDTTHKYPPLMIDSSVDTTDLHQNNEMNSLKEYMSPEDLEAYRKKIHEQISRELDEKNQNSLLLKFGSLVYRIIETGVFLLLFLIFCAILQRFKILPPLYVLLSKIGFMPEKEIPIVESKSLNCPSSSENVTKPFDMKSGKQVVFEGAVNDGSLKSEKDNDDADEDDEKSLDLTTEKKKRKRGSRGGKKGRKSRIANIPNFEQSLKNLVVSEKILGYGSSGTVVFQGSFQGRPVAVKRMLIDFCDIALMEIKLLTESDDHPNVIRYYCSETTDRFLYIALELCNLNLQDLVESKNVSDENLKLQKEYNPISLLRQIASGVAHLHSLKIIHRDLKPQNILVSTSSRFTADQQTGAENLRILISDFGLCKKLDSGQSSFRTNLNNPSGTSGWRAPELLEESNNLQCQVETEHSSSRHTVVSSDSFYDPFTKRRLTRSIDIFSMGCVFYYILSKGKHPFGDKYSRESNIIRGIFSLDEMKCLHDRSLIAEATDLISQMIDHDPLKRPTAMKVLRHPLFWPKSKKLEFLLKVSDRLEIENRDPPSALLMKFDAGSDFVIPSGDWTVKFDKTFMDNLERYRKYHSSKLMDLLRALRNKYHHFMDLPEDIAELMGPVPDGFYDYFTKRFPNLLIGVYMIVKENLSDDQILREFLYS
The assay is described as follows: IRE1 inhibitors screening (inhibition of transcriptional activator HAC1 in yeast). Type of assay: cell-based.
Details: not given
The source says: A series of natural products were screened for their capacity to inhibit the UPR pathway via the inhibition of IRE1 in an in vitro screening test, based inhibition of the transcriptional activator HAC1 in Saccharomyces cerevisiae (the IRE1 protein is the ‘sole effector of the UPR pathway in fungi).
As for `COc1cc2c(cc1O)C1Cc3cc(OC)c(OC)cc3C(C2)N1C` (single isomer, unassigned; (-)) [(−)-Norargemonine], the “μ (% activation) ± σ” value was 101.7 ± 3.6%.
For `O=c1cc(-c2ccccc2)oc2cc(O)cc(O)c12` [Chrysine], the “μ (% activation) ± σ” value is on record as 91.7 ± 1.4%.

Staying with this assay, now noted: in vitro screening; IRE1 activity of less than 80% = retained as IRE1 inhibitor.
With 2-Deprenyl-rheediaxanthone B, the “μ (% activation) ± σ” value was determined as 97.3 ± 4.2%.
In the case of “5,6-O-dimethyl-2-deprenylrheediaxanthone”, the “μ (% activation) ± σ” value was found to be 100.3 ± 1.6%.
Consider `COc1cc2c(cc1OC)C1Cc3ccc(OC)c(OC)c3C(=O)N1CC2` (racemic) [(±)-8-Oxotetrahydropalmatine], for which the “μ (% activation) ± σ” value was 99.6 ± 2.8%.
In the case of `O=C1c2c(O)cc(O)cc2O[C@@H](c2ccc(O)cc2)[C@@H]1c1c(O)cc(O)c2c(=O)cc(-c3ccc(O)cc3)oc12` (racemic) [(±)-Volkensiflavone], the “μ (% activation) ± σ” value was 95.8 ± 0.5%.
On to `O=c1c2ccc(O)c(O)c2oc2cc(O)cc(O)c12` [1,3,5,6-tétra-hydroxy-xanthone], for which the “μ (% activation) ± σ” value is 103.9 ± 0.7%.
On to `CC(C)=CCc1c(O)cc2oc3ccc(O)cc3c(=O)c2c1O` [1,3,7-trihydroxy-2-prenylxanthone], for which the “μ (% activation) ± σ” value is 89.7 ± 0.6%.
For the compound `COc1c(O)ccc2oc3ccccc3c(=O)c12` [1-methoxy-2-hydroxy-xanthone], the “μ (% activation) ± σ” value amounted to 97.9 ± 3.6%.
In the case of `O=c1c2cc(O)ccc2oc2c(O)c(O)c(O)c(O)c12` [2,5,6,7,8-Pentahydroxyxanthone], the “μ (% activation) ± σ” value was determined as 102.3 ± 0.7%.
For `COc1c(OC)c(O)c2c(=O)c(O)c(-c3ccccc3)oc2c1OC` [3,5-dihydroxy-6,7,8-trimethoxyflavone], the “μ (% activation) ± σ” value came out at 98.3 ± 2.4%.
As for `Cc1cc(=O)oc2cc(O)cc(O)c12` [5,7-dihydroxy-4-methyl coumarin], the “μ (% activation) ± σ” value is listed as 104.0 ± 1.4%.
Turning to `COc1c(O)ccc2c(=O)c3c(O)cc4c(c3oc12)C(C)(C)C(C)O4` (centres unmarked) [5-O-methyl-2-deprenylrheediaxanthone B], the “μ (% activation) ± σ” value amounted to 91.6 ± 3.3%.
With `CC(C)=CCc1c(O)c(CC=C(C)C)c2oc3c(O)cccc3c(=O)c2c1O` [8-deoxygartanin], the “μ (% activation) ± σ” value is 96.6 ± 5.7%.
With `COc1c(O)cc2oc3cc4c(c(O)c3c(=O)c2c1CC=C(C)C)C=CC(C)(C)O4` [9-hydroxycalabaxanthone], the “μ (% activation) ± σ” value was 103.5 ± 2.8%.
For `C[C@H](C/C=C/C(C)(C)O)[C@@H]1CC[C@]2(C)C3=C(CC[C@@]12C)[C@@]1(C)CC[C@H](O)C(C)(C)C1CC3` (stereo partly drawn) [(20R,23E)-Eupha-8,23-diene-3b,25-diol], the “μ (% activation) ± σ” value is given as 100.6 ± 2.5%.
Consider `O=c1cc(-c2ccc(O)c(-c3c(O)cc(O)c4c(=O)cc(-c5ccc(O)cc5)oc34)c2)oc2cc(O)cc(O)c12` [Amentoflavone], for which the “μ (% activation) ± σ” value stood at 101.8 ± 2.3%.
As to `O=C(/C=C/c1ccc(O)c(O)c1)OCc1ccccc1` [Benzyl caffeate], the “μ (% activation) ± σ” value is on record as 104.6 ± 4.8%.
With `CC(C)=CCC/C(C)=C/COc1c2ccoc2cc2oc(=O)ccc12` [Bergamotine], the “μ (% activation) ± σ” value is given as 103.5 ± 1.6%.
In the case of `CC(C)=CCc1c(O)cc2oc3ccc4c(c3c(=O)c2c1O)C=CC(C)(C)O4` [Calothwaitesixanthone], the “μ (% activation) ± σ” value is recorded as 104.6 ± 1.4%.
As for `C=CC(C)(C)c1c2c(c(O)c3c(=O)c4cccc(O)c4oc13)C=CC(C)(C)O2` [Caloxanthone C], the “μ (% activation) ± σ” value is listed as 104.2 ± 2.8%.
For the compound `COc1ccc2cc1Oc1ccc(cc1)C[C@H]1c3c(cc4c(c3Oc3cc5c(cc3OC)CCN(C)[C@@H]5C2)OCO4)CCN1C` [Cepharantine], the “μ (% activation) ± σ” value is recorded as 102.2 ± 4.0%.
For the compound `COc1ccc2c(c[n+](C)c3c4cc5c(cc4ccc23)OCO5)c1OC` [Chelerythrine], the “μ (% activation) ± σ” value came to 103.2 ± 3.6%.
